The record followed here is paper PMC4914680 (Antimicrobial Agents and Chemotherapy, 2016).

Assay [1] relates to PI (54V, 82A, 84V 84V) resistant virus. Format: cell-based, HIV-1.
For assay [2], the system named is NNRTI (103N, 181C) resistant virus. The format is cell-based, HIV-1.
Assay [3] relates to V370M virus (recombinant virus with gag/pr genes from a clinical isolate). The experiment in a line: microbe, parasite or virus in culture. The format is cell-based, HIV-1. Conditions: Human immunodeficiency virus 1, MT2, read-out: EC50 (SD).
Assay [4] has as its system INI (140S, 148H) resistant virus (NLRepRluc-G140S/Q148H). Format: cell-based, HIV-1.
Assay [5] has as its system NRTI (41L, 67N, 215F, 219E, 69N), AZT-resistant virus 7324-1. The format is cell-based, HIV-1.
The test system of assay [6] is NRTI (184V) resistant virus (LAI M184V). The format is cell-based, HIV-1.
The subject of assay [7] is HIV-1 NL4-3 ΔV370 variant (NLRepRlucP373S/Δ370). Format: cell-based.
For assay [8], the system named is subtype B gag/pr recombinant viruses. The experiment in a line: Multiple-cycle Gag/Pr phenotyping assay. Format: cell-based, HIV-1.
Assay [9] deals with HIV-LAI envelope-pseudotyped RepRlucP373SΔenv virus. The experiment in a line: Two-stage single-cycle pseudotype assay (HIV-1 entry assay). The format is cell-based.
The subject of assay [10] is HIV-1 NL4-3. The experiment in a line: Time-of-addition study, NL4-3-infected B6 cells. As to conditions: single cycle; for effect on luciferase signal by time of addition: 24 h postinfection; for time postinfection at which effectiveness begins to be lost: >100-fold EC50. Format: cell-based.
Assay [11] concerns the target T1, HIV-1 gp160 (Human immunodeficiency virus type 1 group M subtype B, UniProt P04578).
T1 construct: expressed in transfected cells; host or cells: NL-TOE donor cells (target cells: HeLa C14)
The experiment in a line: HIV-1 cell fusion assay. Format: cell-based.

In assay [12] the target is WT HIV-1 VLPs, p25 to p24 (CA/SP1) cleavage (Human immunodeficiency virus type 1 group M subtype B, UniProt P03348). The experiment in a line: HIV-1 VLP protease cleavage assay. The format is biochemical. As to conditions: Western blot. For orientation: Immunoblotting shows a protein as a band on a membrane.
Assay [13] has as its target HIV-1 Gag (WT LAI VLPs) (Human immunodeficiency virus type 1 group M subtype B, UniProt P03348). The experiment in a line: [3H]BMS-955176-Gag binding (SPA). As to conditions: raltegravir at 10 μM; data not shown.
For assay [14], the system named is PI (46I, 82F, 84V, 90 M) resistant virus. Format: cell-based, HIV-1.
Where [15] appears, read: Human immunodeficiency virus 1, NL43, MT2.
[16] abbreviates: Human immunodeficiency virus 1, NL43, MT2, read-out: EC50 (SD).
Where [17] appears, read: Human immunodeficiency virus 1, read-out: EC50 (mean), sublibrary, None (WT), n=21.
The mark [18] stands for this setting: Human immunodeficiency virus 1, read-out: EC50 (mean), sublibrary, T371A/Q/N/S/TT, n=4.
The mark [19] stands for this setting: Human immunodeficiency virus 1, read-out: EC50 (mean), sublibrary, V362I, n=3.
[20] abbreviates: Human immunodeficiency virus 1, read-out: EC50 (mean), sublibrary, V370A + ΔT371, n=3.
Where [21] appears, read: Human immunodeficiency virus 1, read-out: EC50 (mean), sublibrary, V370A, n=3.
Setting [22] is: Human immunodeficiency virus 1, read-out: EC50 (mean), sublibrary, V370I/L/T, n=3.
Where [23] appears, read: Human immunodeficiency virus 1, read-out: EC50 (mean), sublibrary, V370 M, n=5.

Molecules are shown by their SMILES. “Also recorded” adds a separate entry of the source. Where two headings read alike, the source gives them in different places.

In the case of `COC(=O)N[C@H](C(=O)N[C@@H](Cc1ccccc1)[C@@H](O)CN(Cc1ccc(-c2ccccn2)cc1)NC(=O)[C@@H](NC(=O)OC)C(C)(C)C)C(C)(C)C` [Atazanavir], the “Fold change in EC50 (SD) relative to parental strain” value in [1] was 39; in assay [2], 0.93 (0.03); in assay [4], 1.0 (0.21); in assay [5], 2.27 (0.02); in assay [6], 1.1 (0.1). The figures for the EC50 in assay [3] and in assay [7] (setting [15]) were 0.0023 µM and 0.0038 µM, respectively.
`C=C(C)[C@@H]1CC[C@]2(C(=O)O)CC[C@]3(C)[C@H](CC[C@@H]4[C@@]5(C)CC=C(c6ccc(C(=O)O)cc6)C(C)(C)[C@@H]5CC[C@]43C)[C@@H]12` [BMS-1]: the EC50 in assay [7] (setting [16]) is above 6 µM.
Turning to `C=C(C)[C@@H]1CC[C@]2(C(=O)NCCc3ccccn3)CC[C@]3(C)[C@H](CC[C@@H]4[C@@]5(C)CC=C(c6ccc(C(=O)O)cc6)C(C)(C)[C@@H]5CC[C@]43C)[C@@H]12` [BMS-2], the EC50 turned out to be 0.014 µM in assay [8] (setting [17]); 0.049 µM in assay [8] (setting [18]); 0.029 µM in assay [8] (setting [19]); 0.629 µM in [8] (setting [20]); 0.038 µM in assay [8] (setting [21]); 0.026 µM in assay [8] (setting [22]). Also, the EC50 was determined as 0.076 µM in assay [8] (setting [23]) and 0.415 µM in [7] (setting [16]).
Regarding `C=C(C)[C@@H]1CC[C@]2(C(=O)NCCN(C)C)CC[C@]3(C)[C@H](CC[C@@H]4[C@@]5(C)CC=C(c6ccc(C(=O)O)cc6)C(C)(C)[C@@H]5CC[C@]43C)[C@@H]12` [BMS-3], the EC50 in assay [7] (setting [16]) amounted to 0.031 µM.
For `COc1ccnc2[nH]cc(C(=O)C(=O)N3CCN(C(=O)c4ccccc4)C[C@H]3C)c12` [BMS-378806], in assay [9], the “inhibition of luciferase, compound added at stage 1 (virus production)” value (from here on “inhibition of luciferase … (virus production)”) is reported as “inhibitory when added at either stage 1 or 2” and the “inhibition of luciferase, compound added at stage 2 (infection)” value (“inhibition of luciferase … (infection)” below) was “inhibitory when added at either stage 1 or 2”. In assay [10], the “effect on luciferase signal by time of addition” value (“effect on luciferase signal” below) is listed as “fully inhibitory (0% of control) only when added at the time of infection” and the “time postinfection at which effectiveness begins to be lost” value (shortened to “time postinfection”) was at most 4 h. The EC50 in [11] (cell-cell fusion, luciferase, read-out: EC50) was determined as 0.0009 µM.
As to `C=C(C)[C@@H]1CC[C@]2(C(=O)O)CC[C@]3(C)[C@H](CC[C@@H]4[C@@]5(C)CC[C@H](OC(=O)CC(C)(C)C(=O)O)C(C)(C)[C@@H]5CC[C@]43C)[C@@H]12` [BVM, 3-O-(3′,3′-dimethylsuccinyl)betulinic acid, reference compound], the “inhibition of conversion of VLP p25 to p24” value in [12] was “inhibited the conversion of HIV-1 WT VLP p25 to p24 in a dose-dependent manner”. Besides, the “competition for the binding of [3H]BMS-955176” value in assay [13] is on record as “A similar result was obtained by displacement”. Also, the EC50 in [8] (setting [17]) was 0.014 µM; in assay [8] (setting [18]), 0.113 µM; in assay [8] (setting [19]), 0.036 µM; in [8] (setting [20]), above 4 µM; in [8] (setting [21]), 0.227 µM; in assay [8] (setting [22]) it was 0.251 µM. Moreover, the EC50 in assay [8] (setting [23]) is 0.903 µM; in [7] (setting [15]) it was at least 10 µM; in [7] (setting [16]), above 10 µM. In addition, the “inhibition of luciferase … (virus production)” value in assay [9] is given as “inhibiting luciferase production only when added in the first stage; also recorded: does not attain complete inhibition relative to NFV”. Moreover, the “inhibition of luciferase … (infection)” value in assay [9] was “inhibiting luciferase production only when added in the first stage”. Besides, in [10], the “effect on luciferase signal” value is “had no effect when added at any time point”.
Consider `CC(C)CN(C[C@@H](O)[C@H](Cc1ccccc1)NC(=O)O[C@H]1CO[C@H]2OCC[C@H]21)S(=O)(=O)c1ccc(N)cc1` [Darunavir], for which the “Fold change in EC50 (SD) relative to parental strain” value in assay [1] is given as 2.3; in assay [2], 0.90 (0.1); in [4], 1.1 (0.1); in [14], 41 (1.9); in assay [6], 1.2 (0.4). The EC50 came out at 0.0023 µM in assay [3] and 0.0045 µM in assay [7] (setting [15]).
With `O=C1Nc2ccc(Cl)cc2[C@@](C#CC2CC2)(C(F)(F)F)O1` [Efavirenz], the “Fold change in EC50 (SD) relative to parental strain” value in [1] is 1.4; in assay [2], 55 (2.2); in assay [4], 0.60 (0.3); in assay [14], 0.20 (0.01); in assay [6], 1.0 (0.1). Also, the “time postinfection” value in assay [10] came out at 6 h.
With `Nc1ccn([C@@H]2CS[C@H](CO)O2)c(=O)n1` [Lamivudine], the EC50 in [7] (setting [15]) is 0.47 µM.
As to `Cc1c(O)cccc1C(=O)N[C@@H](CSc1ccccc1)[C@H](O)CN1C[C@H]2CCCC[C@H]2C[C@H]1C(=O)NC(C)(C)C` [NFV], in assay [9], the “inhibition of luciferase … (virus production)” value is “luciferase activity was inhibited” and the “inhibition of luciferase … (infection)” value is “luciferase production was not inhibited”. Further, the “effect on luciferase signal” value in assay [10] is reported as “had no effect when added at any time point”. Further, in [11], the EC50 was above 2 µM. In assay [7] (setting [15]), the EC50 is 0.005 µM.
Turning to `Cc1ccnc2c1NC(=O)c1cccnc1N2C1CC1` [Nevirapine], the “Fold change in EC50 (SD) relative to parental strain” value in assay [2] is >131 (108); in [4], 0.89 (0.59); in assay [5] it was 1.6 (0.2); in assay [14] it was 0.83 (0.08); in assay [6], 1.3 (0.2). Further, the EC50 turned out to be 0.93 µM in assay [3] and 0.17 µM in assay [7] (setting [15]).
Take `Cc1nnc(C(=O)NC(C)(C)c2nc(C(=O)NCc3ccc(F)cc3)c(O)c(=O)n2C)o1` [Raltegravir]: the “competition for the binding of [3H]BMS-955176” value in assay [13] is reported as “did not compete”. Besides, the “Fold change in EC50 (SD) relative to parental strain” value was 1.8 (0.4) in assay [2], >340 (72) in assay [4], 0.18 (0.07) in assay [14] and 1.9 (0.6) in assay [6]. Moreover, the EC50 came out at 0.0033 µM in [3] and 0.0034 µM in assay [7] (setting [15]). Moreover, the “time postinfection” value in assay [10] is 8 h.
As to `Cc1cc(/C=C/C#N)cc(C)c1Nc1ccnc(Nc2ccc(C#N)cc2)n1` [Rilpivirine], the “Fold change in EC50 (SD) relative to parental strain” value in assay [2] was 8.1 (1.5); in assay [4], 1.0 (0.5); in assay [14] it was 2.6 (0.8); in [6], 2.0 (0.3).
Consider `C[C@H](Cn1cnc2c(N)ncnc21)OCP(=O)(O)O` [Tenofovir], for which the results for the EC50 in [3] and in [7] (setting [15]) were 0.005 µM and 0.0072 µM, respectively.
With `Cc1cn([C@H]2C[C@H](N=[N+]=[N-])[C@@H](CO)O2)c(=O)[nH]c1=O` [Zidovudine], the “Fold change in EC50 (SD) relative to parental strain” value in [2] is recorded as 1.03 (0.17); in [4] it was 0.82 (0.41); in assay [5], 79 (5); in [6] it was 0.78 (0.03).
